Paper PMC12053652, “Transport and inhibition mechanisms of human creatine transporter” (Cell Discovery, 2025)
Blank lines part the entries; values can stand above or below the molecule they belong to.

Key:
[1] = biological target: T1, human creatine transporter (CRT) (Homo sapiens, UniProt P48029); test: cryo-EM structure ([…] Å); IC50 from […]creatine uptake inhibition in HEK293 cells; format: cell-based
T1 construct: gene SLC6A8; full-length wild-type
T1 sequence (P48029 1-635): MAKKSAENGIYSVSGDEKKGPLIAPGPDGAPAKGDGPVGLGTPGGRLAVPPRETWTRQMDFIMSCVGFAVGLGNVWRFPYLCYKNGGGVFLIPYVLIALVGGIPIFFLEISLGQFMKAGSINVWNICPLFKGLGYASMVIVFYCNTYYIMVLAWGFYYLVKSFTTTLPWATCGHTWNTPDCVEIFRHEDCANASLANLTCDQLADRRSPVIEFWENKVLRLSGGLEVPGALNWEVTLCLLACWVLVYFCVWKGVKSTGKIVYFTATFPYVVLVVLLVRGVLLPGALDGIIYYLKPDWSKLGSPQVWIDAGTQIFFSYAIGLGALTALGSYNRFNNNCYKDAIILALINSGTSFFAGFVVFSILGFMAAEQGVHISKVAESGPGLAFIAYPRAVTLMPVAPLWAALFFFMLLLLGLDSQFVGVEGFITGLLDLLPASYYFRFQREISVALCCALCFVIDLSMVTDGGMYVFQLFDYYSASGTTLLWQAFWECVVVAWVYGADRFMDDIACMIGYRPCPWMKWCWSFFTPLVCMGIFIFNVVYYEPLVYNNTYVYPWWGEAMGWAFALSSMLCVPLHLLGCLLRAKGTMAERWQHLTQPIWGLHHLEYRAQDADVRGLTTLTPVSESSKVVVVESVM

[2] = substrate: CN(CC(=O)O)C(=N)N; test: cells, lysate or membranes; format: cell-based, Homo sapiens; conditions: Na+ and Cl- (Na+[…] and Cl- in the structure) central binding site; Tyr148, Ser417, Ala69, Phe315, Gly73; guanidine group surrounded by Phe68, Tyr148, Phe315; contacts Na+[…]

IC50 [1]: 53 µM
Molecule: N=C(N)NCCC(=O)O [RGX, RGX-202]

B1: human creatine transporter (CRT) (Homo sapiens) (protein)
chain: T1 sequence (P48029 1-635)
notes: full-length wild-type
Km [2]: 106.3 µM
